# Source: the NIST ThermoML archive (doi:10.1021/je0340912)
# Where “and” joins values, the source holds several entries; their conditions need not be identical. Equal entries are not always repeated. ± gives the expanded uncertainty stated by the source.
# What was measured:
# [1] = Liquid; for mass density: 101.33 kPa
# [2] = excess molar enthalpy (molar enthalpy of mixing); xn = mol fraction of the nth substance listed; details: 101.32 kPa, Liquid, Flow calorimetry
smiles,measurement,setting,value
"C=C(C)CC(C)(C)C [2,4,4-trimethyl-1-pentene]",mass density,[1]; 298.15 K,711.3 ± 1 kg/m3
same,vapor or sublimation pressure,[1]; 374.34 K,101.4 ± 0.3 kPa and 101.3 ± 0.3 kPa
"C=C(C)CC(C)(C)C [2,4,4-trimethyl-1-pentene] + CC(C)(C)O",excess molar enthalpy,"[2]; 300.15 K, x2 = 0.0529",0.125 ± 0.00148 kcal/mol
same,excess molar enthalpy,"[2]; 300.15 K, x2 = 0.0811",0.151 ± 0.00174 kcal/mol
same,excess molar enthalpy,"[2]; 300.15 K, x2 = 0.1559",0.188 ± 0.00213 kcal/mol
same,excess molar enthalpy,"[2]; 300.15 K, x2 = 0.2264",0.208 ± 0.00232 kcal/mol
same,excess molar enthalpy,"[2]; 300.15 K, x2 = 0.2928",0.218 ± 0.00239 kcal/mol
same,excess molar enthalpy,"[2]; 300.15 K, x2 = 0.3555",0.225 ± 0.00239 kcal/mol
same,excess molar enthalpy,"[2]; 300.15 K, x2 = 0.4148",0.227 ± 0.00263 kcal/mol
same,excess molar enthalpy,"[2]; 300.15 K, x2 = 0.471",0.228 ± 0.00263 kcal/mol
same,excess molar enthalpy,"[2]; 300.15 K, x2 = 0.5241",0.226 ± 0.00263 kcal/mol
same,excess molar enthalpy,"[2]; 300.15 K, x2 = 0.5242",0.225 ± 0.00239 kcal/mol
same,excess molar enthalpy,"[2]; 300.15 K, x2 = 0.5747",0.222 kcal/mol
same,excess molar enthalpy,"[2]; 300.15 K, x2 = 0.6229",0.216 ± 0.00239 kcal/mol
same,excess molar enthalpy,"[2]; 300.15 K, x2 = 0.6687",0.207 ± 0.00232 kcal/mol
same,excess molar enthalpy,"[2]; 300.15 K, x2 = 0.7124",0.195 ± 0.0022 kcal/mol
same,excess molar enthalpy,"[2]; 300.15 K, x2 = 0.7541",0.18 ± 0.00203 kcal/mol
same,excess molar enthalpy,"[2]; 300.15 K, x2 = 0.7939",0.161 ± 0.00186 kcal/mol
same,excess molar enthalpy,"[2]; 300.15 K, x2 = 0.832",0.141 ± 0.00165 kcal/mol
same,excess molar enthalpy,"[2]; 300.15 K, x2 = 0.8685",0.118 ± 0.00141 kcal/mol
same,excess molar enthalpy,"[2]; 300.15 K, x2 = 0.9034",0.0915 ± 0.00115 kcal/mol
same,excess molar enthalpy,"[2]; 300.15 K, x2 = 0.9369",0.0626 ± 0.00086 kcal/mol
same,excess molar enthalpy,"[2]; 300.15 K, x2 = 0.9691",0.0326 ± 0.000574 kcal/mol
"C=C(C)CC(C)(C)C [2,4,4-trimethyl-1-pentene] + CCC(C)O",excess molar enthalpy,"[2]; 298.15 K, x2 = 0.0544",0.13 ± 0.00153 kcal/mol
same,excess molar enthalpy,"[2]; 298.15 K, x2 = 0.0832",0.159 ± 0.00184 kcal/mol
same,excess molar enthalpy,"[2]; 298.15 K, x2 = 0.1597",0.202 ± 0.00225 kcal/mol
same,excess molar enthalpy,"[2]; 298.15 K, x2 = 0.2314",0.227 ± 0.00263 kcal/mol
same,excess molar enthalpy,"[2]; 298.15 K, x2 = 0.2987",0.243 ± 0.00263 kcal/mol
same,excess molar enthalpy,"[2]; 298.15 K, x2 = 0.3621",0.251 ± 0.00263 kcal/mol
same,excess molar enthalpy,"[2]; 298.15 K, x2 = 0.4217",0.252 ± 0.00287 kcal/mol
same,excess molar enthalpy,"[2]; 298.15 K, x2 = 0.4781",0.249 ± 0.00263 kcal/mol
same,excess molar enthalpy,"[2]; 298.15 K, x2 = 0.5313",0.241 ± 0.00263 kcal/mol
same,excess molar enthalpy,"[2]; 298.15 K, x2 = 0.5818",0.229 ± 0.00263 kcal/mol
same,excess molar enthalpy,"[2]; 298.15 K, x2 = 0.6296",0.213 ± 0.00237 kcal/mol
same,excess molar enthalpy,"[2]; 298.15 K, x2 = 0.675",0.196 ± 0.0022 kcal/mol
same,excess molar enthalpy,"[2]; 298.15 K, x2 = 0.7182",0.177 ± 0.00201 kcal/mol
same,excess molar enthalpy,"[2]; 298.15 K, x2 = 0.7593",0.156 ± 0.00179 kcal/mol
same,excess molar enthalpy,"[2]; 298.15 K, x2 = 0.7986",0.134 ± 0.00158 kcal/mol
same,excess molar enthalpy,"[2]; 298.15 K, x2 = 0.836",0.112 ± 0.00136 kcal/mol
same,excess molar enthalpy,"[2]; 298.15 K, x2 = 0.8717",0.0891 ± 0.00112 kcal/mol
same,excess molar enthalpy,"[2]; 298.15 K, x2 = 0.9059",0.0665 ± 0.000908 kcal/mol
same,excess molar enthalpy,"[2]; 298.15 K, x2 = 0.9386",0.0437 ± 0.000669 kcal/mol
same,excess molar enthalpy,"[2]; 298.15 K, x2 = 0.9699",0.0219 ± 0.000454 kcal/mol
CC(C)(C)O [2-methylpropan-2-ol],mass density,[1]; 303.15 K,775.5 ± 0.6 kg/m3
same,vapor or sublimation pressure,[1]; 355.13 K,100.6 ± 0.2 kPa
CCC(C)O (configuration not stated) [butan-2-ol],mass density,[1]; 298.15 K,802.4 ± 0.6 kg/m3
same,vapor or sublimation pressure,[1]; 372.14 K,100.5 ± 0.2 kPa
